{"source": "patent US5254557A", "about": "“Compound and treatment” (Beecham Group p.l.c., priority 1988, dated 1993)", "key": {"[1]": {"test_system": "guinea pig tracheal spiral preparations", "assay": "Bronchodilation in vitro; guinea pig tracheal spiral preparations", "type": "cell-based", "conditions": "Cavia porcellus; for Emax: guinea pig tracheal spirals, relaxation relative to 10^-3 M isoprenaline, read-out: Intrinsic Activity; for IC50: relaxation as percentage of total relaxation by 10^-3 M isoprenaline, cumulative dosing 10^-8 - 2×10^-5 M, 37° C", "procedure": "(a) Bronchodilation in vitro; guinea pig tracheal spiral preparations\nMale guinea pigs (300-600 g) were stunned by a blow to the head and bled from the carotid artery. The trachea was exposed, dissected free of connective tissue, and transferred to oxygenated krebs solution at 37° C. Next, spirals (2 per trachea) were prepared by cutting the whole trachea spirally along its longitudinal axis and then dividing this spiral lengthwise. Each preparation was mounted, using silk thread, in a 10 ml organ bath filled with krebs solution at 37° C. and bubbled with 5% CO2 with O2. The resting tension of the preparations was set at 2 g and changes in muscle tension were monitored isometrically by means of a UFI (2 oz) force and displacement transducer (Ormed Ltd) connected to a Linseis pen recorder. All preparations were allowed to equilibrate for 60 minutes. During this equilibration period the preparations were washed by upward displacement at 15 minute intervals and, if necessary, the resting tension was readjusted to 2 g using a mechanical micromanipulator system.\nOnce a steady resting tension had been obtained, the preparations were dosed cumulatively with the test compound (10^-8 -2×10^-5 M), and finally a maximum relaxation achieved by addition of 10^-3 M isoprenaline. The fall in tension evoked by the test compound was expressed as a percentage of the total relaxation evoked in the presence of 10^-3 M isoprenaline. Appropriate concentration-relaxation curves were then constructed and values for potency (IC50) were obtained.\nThe composition of Krebs solution is: sodium chloride 118.07 mM, sodium hydrogen carbonate 26.19 mM, potassium chloride 4.68 mM, potassium orthophosphate 1.18 mM, magnesium sulphate septahydrate 1.8 mM and calcium chloride 2.52 mM; pH ca. 7.45."}, "[2]": {"test_system": "Spontaneously hypertensive rats", "assay": "Blood Pressure Lowering Activity (systolic blood pressure, tail cuff method)", "type": "in vivo, rat", "procedure": "Blood Pressure Lowering Activity\nSystolic blood pressures were recorded by a modification of the tail cuff method described by I. M. Claxton, M. G. Palfreyman, R. H. Poyser, R. L. Whiting, European Journal of Pharmacology, 37, 179 (1976). A W+W BP recorder, model 8005 was used to display pulses. Prior to all measurements rats were placed in a heated environment (33.5°±0.5° C.) before transfer to a restraining cage. Each determination of blood pressure was the mean of at least 6 readings. Spontaneously hypertensive rats (ages 12-18 weeks) with systolic blood pressures>180 mmHg were considered hypertensive."}}}
{"smiles": "CC1(C)Oc2ccc(C#N)cc2[C@@H](n2ccccc2=O)[C@@H]1O", "note": "(relative stereo) [Example 1, Trans-6-Cyano-3,4-dihydro-2,2-dimethyl-4-(2(1H)-pyridon-1-yl)-2H-1-benzopyran-3-ol]", "values": [{"measurement": "Emax", "setting": "[1]", "result": 96, "unit": "%"}, {"measurement": "IC50", "setting": "[1]", "result": 790, "unit": "nM"}, {"measurement": "% Change in Systolic B.P.", "setting": "[2]; 0.1 mg/kg p.o., 1 h post dose", "result": "-12 ± 5", "unit": "%"}, {"measurement": "% Change in Systolic B.P.", "setting": "[2]; 0.1 mg/kg p.o., 2 h post dose", "result": "-20 ± 2", "unit": "%"}, {"measurement": "% Change in Systolic B.P.", "setting": "[2]; 0.1 mg/kg p.o., 4 h post dose", "result": "-21 ± 3", "unit": "%"}, {"measurement": "% Change in Systolic B.P.", "setting": "[2]; 0.1 mg/kg p.o., 6 h post dose", "result": "-23 ± 5", "unit": "%"}]}
{"smiles": "CC1(C)Oc2ccc(C(F)(F)F)cc2[C@@H](n2ccccc2=O)[C@@H]1O", "note": "(relative stereo) [Example 4, Trans-3,4-Dihydro-2,2-dimethyl-6-trifluoromethyl-4-(2(1H)-pyridon-1-yl)-2H-1-benzopyran-3-ol]", "values": [{"measurement": "Emax", "setting": "[1]", "result": 95, "unit": "%"}, {"measurement": "IC50", "setting": "[1]", "result": 540, "unit": "nM"}, {"measurement": "% Change in Systolic B.P.", "setting": "[2]; 0.3 mg/kg p.o., 2 h post dose", "result": "-42 ± 3", "unit": "%"}, {"measurement": "% Change in Systolic B.P.", "setting": "[2]; 0.3 mg/kg p.o., 4 h post dose", "result": "-32 ± 5", "unit": "%"}, {"measurement": "% Change in Systolic B.P.", "setting": "[2]; 0.3 mg/kg p.o., 6 h post dose", "result": -34, "unit": "%"}]}
{"smiles": "CC1(C)Oc2ccncc2[C@@H](n2ccccc2=O)[C@@H]1O", "note": "(relative stereo) [Example 6]", "values": [{"measurement": "Emax", "setting": "[1]", "result": 81, "unit": "%"}, {"measurement": "IC50", "setting": "[1]", "result": 5500, "unit": "nM"}]}
{"smiles": "CC1(C)C=C(n2ccccc2=O)c2cc(C#N)ccc2O1", "note": "[Example 2, 6-Cyano-2,2-dimethyl-4-(2(1H)-pyridon-1-yl)-2H-1-benzopyran]", "values": [{"measurement": "Emax", "setting": "[1]", "result": 92, "unit": "%"}, {"measurement": "IC50", "setting": "[1]", "result": 100, "unit": "nM"}, {"measurement": "% Change in Systolic B.P.", "setting": "[2]; 0.03 mg/kg p.o., 2 h post dose", "result": "-41 ± 3", "unit": "%"}, {"measurement": "% Change in Systolic B.P.", "setting": "[2]; 0.03 mg/kg p.o., 4 h post dose", "result": -38, "unit": "%"}, {"measurement": "% Change in Systolic B.P.", "setting": "[2]; 0.03 mg/kg p.o., 6 h post dose", "result": "-32 ± 3", "unit": "%"}]}
{"smiles": "CC1(C)C=C(n2ccc(=O)cc2)c2cc(C#N)ccc2O1", "note": "[Example 3, 6-Cyano-2,2-dimethyl-4-(4(1H)-pyridon-1-yl)-2H-1-benzopyran]", "values": [{"measurement": "Emax", "setting": "[1]", "result": 75, "unit": "%"}, {"measurement": "IC50", "setting": "[1]", "result": 11000, "unit": "nM"}, {"measurement": "% Change in Systolic B.P.", "setting": "[2]; 3 mg/kg p.o., 1 h post dose", "result": "-46 ± 7", "unit": "%"}, {"measurement": "% Change in Systolic B.P.", "setting": "[2]; 3 mg/kg p.o., 2 h post dose", "result": "-49 ± 3", "unit": "%"}, {"measurement": "% Change in Systolic B.P.", "setting": "[2]; 3 mg/kg p.o., 4 h post dose", "result": -63, "unit": "%"}, {"measurement": "% Change in Systolic B.P.", "setting": "[2]; 3 mg/kg p.o., 6 h post dose", "result": "-57 ± 3", "unit": "%"}]}
{"smiles": "CC1(C)C=C(n2ccccc2=O)c2cc(C(F)(F)F)ccc2O1", "note": "[Example 5, 2,2-Dimethyl-6-trifluoromethyl-4-(2(1H)-pyridon-1-yl)-2H-1-benzopyran]", "values": [{"measurement": "Emax", "setting": "[1]", "result": 99, "unit": "%"}, {"measurement": "IC50", "setting": "[1]", "result": 52, "unit": "nM"}, {"measurement": "% Change in Systolic B.P.", "setting": "[2]; 0.03 mg/kg p.o., 1 h post dose", "result": "-15 ± 3", "unit": "%"}, {"measurement": "% Change in Systolic B.P.", "setting": "[2]; 0.03 mg/kg p.o., 2 h post dose", "result": "-20 ± 1", "unit": "%"}, {"measurement": "% Change in Systolic B.P.", "setting": "[2]; 0.03 mg/kg p.o., 4 h post dose", "result": "-25 ± 3", "unit": "%"}, {"measurement": "% Change in Systolic B.P.", "setting": "[2]; 0.03 mg/kg p.o., 6 h post dose", "result": "-28 ± 1", "unit": "%"}]}
{"smiles": "CC1(C)C=C(n2ccccc2=O)c2cnccc2O1", "note": "[Example 7, 2,2-Dimethyl-4-(2(1H)-pyridon-1-yl)-2H-pyrano[3,2-c]pyridine]", "values": [{"measurement": "Emax", "setting": "[1]", "result": 93, "unit": "%"}, {"measurement": "IC50", "setting": "[1]", "result": 2400, "unit": "nM"}]}
